The record followed here is PubChem BioAssay (NCI).

Molecules are shown by their SMILES. Values joined by “and” are separate entries in the source; they are usually repeats but may differ in a detail not shown here. Equal entries are not always repeated.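 In this assay, cells in 96-well plates receive the compound at five concentrations for 48 hours. Endpoints are linearly interpolated between the surrounding concentrations. The concentration for 50% growth inhibition is given as GI50. The concentration for full growth arrest is given as TGI.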 Where only a bound is given, the exact number is not on record here.

Among the test systems are TK-10 renal; HOP-92 NSCLC; COLO 205 colon; SW-620 colon; UACC-257 melanoma; T-47D breast; U251 CNS; MALME-3M melanoma; ACHN renal; SK-OV-3 ovarian.
Holding throughout (test): NCI anticancer screen, dose series, 48 h

For the compound `CC1(C)N=C(N)N=C(N)N1c1ccc(CNC(=O)Nc2ccc(S(=O)(=O)F)c(Cl)c2)c(Cl)c1`, the GI50 was 8.39 µM in the assay on TK-10 renal; 19.9 µM in the assay on HOP-92 NSCLC; 0.867 µM in the assay on COLO 205 colon; 0.122 µM with SW-620 colon; 5.11 µM with UACC-257 melanoma; 11.6 µM in the assay with T-47D breast. Besides, the GI50 in the assay on U251 CNS is 0.51 µM; in the assay on MALME-3M melanoma, 17.3 µM; with ACHN renal, 5.28 µM; in the assay on SK-OV-3 ovarian, over 45 µM. The TGI in the assay with TK-10 renal is over 100 µM; in the assay with HOP-92 NSCLC, 97.5 µM; in the assay with COLO 205 colon it was over 100 µM; with SW-620 colon it was over 100 µM; in the assay with UACC-257 melanoma, over 100 µM; with T-47D breast, over 100 µM. For the same compound, the TGI with U251 CNS, in the assay with MALME-3M melanoma, in the assay with ACHN renal and with SK-OV-3 ovarian was over 100 µM throughout.
Turning to `COc1cc(CCC[P+](c2ccccc2)(c2ccccc2)c2ccccc2)c(OC)c2c1OCO2`, the GI50 is 4.05 µM with TK-10 renal; 1.15 µM in the assay on HOP-92 NSCLC; 0.907 µM in the assay with COLO 205 colon; 1.83 µM in the assay with SW-620 colon; 0.378 µM with UACC-257 melanoma; 0.419 µM in the assay on T-47D breast. Also, the GI50 was 1.63 µM with U251 CNS, 0.602 µM in the assay on MALME-3M melanoma, 4.07 µM in the assay on ACHN renal and 2.02 µM with SK-OV-3 ovarian. Moreover, the TGI in the assay with TK-10 renal amounted to 23.3 µM; in the assay on HOP-92 NSCLC, 6.88 µM; with COLO 205 colon, 3.38 µM; in the assay with SW-620 colon, 11.4 µM; in the assay with UACC-257 melanoma, 6.44 µM; with T-47D breast, 14.7 µM. Further, the TGI in the assay on U251 CNS stood at 17.5 µM; with MALME-3M melanoma, 6.92 µM; in the assay with ACHN renal it was 21 µM; with SK-OV-3 ovarian, 6.41 µM.
Consider `NC(=S)N/N=C/c1ccc(OC(=O)COc2cc(Cl)c(Cl)cc2Cl)cn1`, for which the GI50 is 41.9 µM in the assay on TK-10 renal; 1.54 µM with HOP-92 NSCLC; 7.39 µM in the assay on COLO 205 colon; 5.75 µM in the assay with SW-620 colon; 11 µM with UACC-257 melanoma; 2.87 µM with T-47D breast. Moreover, the GI50 in the assay on U251 CNS is 3.52 µM; with MALME-3M melanoma, 4.96 µM; in the assay with ACHN renal, 3.03 µM; in the assay with SK-OV-3 ovarian it was 8.49 µM. Moreover, the TGI in the assay with TK-10 renal is over 100 µM; in the assay on HOP-92 NSCLC, 26.6 µM; in the assay on COLO 205 colon, over 100 µM; in the assay on SW-620 colon, over 100 µM; with UACC-257 melanoma, 51.5 µM; in the assay with T-47D breast it was over 100 µM. The TGI in the assay with U251 CNS, in the assay on MALME-3M melanoma, with ACHN renal and in the assay with SK-OV-3 ovarian was over 100 µM each time.
`Cc1cc2c(F)c(Oc3ncnc(Nc4ccc(N5C[C@@H](C)N[C@@H](C)C5)cc4)c3C#N)cc(F)c2[nH]1`: the GI50 in the assay on TK-10 renal is 2.65 µM; with HOP-92 NSCLC it was 2.07 µM; with COLO 205 colon, 1.68 µM; with SW-620 colon, 1.83 µM; with UACC-257 melanoma, 2.06 µM; with T-47D breast it was 1.97 µM. Also, the GI50 was 1.72 µM in the assay on U251 CNS, 1.61 µM in the assay on MALME-3M melanoma, 2.05 µM in the assay with ACHN renal and 3.91 µM in the assay on SK-OV-3 ovarian. The TGI in the assay with TK-10 renal amounted to 6.31 µM; with HOP-92 NSCLC, 8.85 µM; with COLO 205 colon, 3.58 µM; in the assay with SW-620 colon, 4.1 µM; in the assay with UACC-257 melanoma, 4.04 µM; with T-47D breast, 5.57 µM. The TGI was 4.47 µM in the assay on U251 CNS, 3.48 µM in the assay on MALME-3M melanoma, 4.21 µM in the assay with ACHN renal and 13.7 µM in the assay with SK-OV-3 ovarian.
Take `O=C(O)c1cccc(S(=O)(=O)NCCO)c1`: the TGI with TK-10 renal, with HOP-92 NSCLC, with COLO 205 colon, in the assay on SW-620 colon, with UACC-257 melanoma and with T-47D breast was over 100 µM in each case. For the same compound, the TGI with U251 CNS, in the assay on MALME-3M melanoma, with ACHN renal and with SK-OV-3 ovarian was over 100 µM in each case.
As for `COc1ccc(Br)cc1NC(=O)Nc1cccc2c1ccn2Cc1ccnc(N)c1`, the GI50 in the assay on TK-10 renal was 5.33 µM and 7.07 µM; in the assay on HOP-92 NSCLC, 2.18 µM and 1.96 µM; in the assay on COLO 205 colon, 6.48 µM and 4.48 µM; with SW-620 colon it was 2.85 µM and 6.72 µM; with UACC-257 melanoma, 9.81 µM and > 10 µM; in the assay on T-47D breast, 3.3 µM and 3.9 µM. In addition, the GI50 is 4.55 µM and 5.4 µM in the assay with U251 CNS; 12.1 µM and > 10 µM in the assay with MALME-3M melanoma; 5.51 µM and 4.91 µM in the assay with ACHN renal; 8.38 µM and > 10 µM with SK-OV-3 ovarian. For the same compound, the TGI with TK-10 renal is 16.6 µM and > 10 µM; in the assay on HOP-92 NSCLC it was 7.9 µM and 8.55 µM; with COLO 205 colon, 18.2 µM and > 10 µM; in the assay with SW-620 colon, 8.41 µM and > 10 µM; in the assay on UACC-257 melanoma it was 27.5 µM and > 10 µM; in the assay with T-47D breast, 18.4 µM and > 10 µM. For the same compound, the TGI in the assay with U251 CNS was 15.6 µM and > 10 µM; with MALME-3M melanoma, 32 µM and > 10 µM; in the assay with ACHN renal, 23.2 µM and > 10 µM; with SK-OV-3 ovarian it was 26.3 µM and > 10 µM.
